Experimental data: the NIST ThermoML archive (doi:10.1016/j.tca.2015.07.011)
Values joined by “and” are separate entries in the source; they are usually repeats but may differ in a detail not shown here. Equal entries are not always repeated.

What was measured:
[1] = for mass density: 293 K, 101.33 kPa, Pycnometric method; for vapor or sublimation pressure: Transpiration method
[2] = Molar enthalpy of transition or fusion; conditions: DSC

CC(C)COc1ccccc1C(=O)O [2-iso-butoxybenzoic acid]
Conditions | mass density [kg/m3]
[1], Liquid | 1100

[1], Liquid
Conditions | vapor or sublimation pressure
343.9 K | 0.0008 kPa
353.1 K | 0.00176 kPa
363.2 K | 0.0041 kPa
365.2 K | 0.0048 kPa
369.2 K | 0.00662 kPa
371.2 K | 0.00775 kPa
371.4 K | 0.00817 kPa and 0.00791 kPa
371.5 K | 0.00808 kPa
374.2 K | 0.01017 kPa
374.4 K | 0.00999 kPa
376.5 K | 0.01179 kPa
377.3 K | 0.01245 kPa
378.5 K | 0.01391 kPa
379.2 K | 0.01467 kPa
380.1 K | 0.01546 kPa
380.2 K | 0.01553 kPa
382.4 K | 0.0177 kPa
384.2 K | 0.02038 kPa
385.8 K | 0.02237 kPa
388.1 K | 0.02622 kPa
390.3 K | 0.03064 kPa
393 K | 0.03639 kPa
395.2 K | 0.04478 kPa
398.1 K | 0.05373 kPa

COc1ccccc1C(=O)O [2-methoxybenzoic acid]
[1], Crystal
Conditions | vapor or sublimation pressure [kPa]
342.4 K | 0.00098
346.2 K | 0.00152
348.2 K | 0.00181
350.3 K | 0.00221
352.2 K | 0.00272
354.3 K | 0.00347
356.2 K | 0.00419
358.9 K | 0.00536
361.4 K | 0.0068
363.2 K | 0.00813
366.2 K | 0.01064
367.9 K | 0.01262
371.5 K | 0.01728

CC(C)COc1cccc(C(=O)O)c1 [3-iso-butoxybenzoic acid]
Crystal
Conditions | Molar enthalpy of transition or fusion [kcal/mol] | mass density [kg/m3]
[1] | – | 1130
[2] | 6.02 | –

[1]
Conditions | Normal melting temperature [°C] | vapor or sublimation pressure [kPa]
354.8 K, Liquid | – | 0.00162
356.2 K, Liquid | – | 0.00181
357.4 K, Liquid | – | 0.00202
359.5 K, Liquid | – | 0.00238
361.2 K, Liquid | – | 0.00281
363 K, Liquid | – | 0.0032
364.2 K, Liquid | – | 0.00358
365.7 K, Liquid | – | 0.00406
368.3 K, Liquid | – | 0.00493
370.9 K, Liquid | – | 0.00601
372.7 K, Liquid | – | 0.00707
373.7 K, Liquid | – | 0.00763
375.3 K, Liquid | – | 0.00871
378.2 K, Liquid | – | 0.01099
380.1 K, Liquid | – | 0.013
382.7 K, Liquid | – | 0.01579
Crystal, DTA | 80.4 | –
Crystal, visual observation | 80.00 | –

CCCCOc1ccc(C(=O)O)cc1 [4-butoxybenzoic acid]
[1], Crystal
Conditions | vapor or sublimation pressure
377.8 K | 0.00164 kPa
383.4 K | 0.00285 kPa
391 K | 0.00586 kPa
396.2 K | 0.00973 kPa
399.3 K | 0.01214 kPa
401.3 K | 0.01536 kPa
406.4 K | 0.02366 kPa
411.4 K | 0.03676 kPa
415.4 K | 0.04923 kPa
417.3 K | 0.05826 kPa and 0.05838 kPa

CC(C)COc1ccc(C(=O)O)cc1 [4-iso-butoxybenzoic acid]
Conditions | Molar enthalpy of transition or fusion, Crystal 1 [kcal/mol] | Molar enthalpy of transition or fusion, Crystal 2 [kcal/mol] | Normal melting temperature, Crystal 1, DTA [°C] | Triple point temperature, Crystal 2, DTA [K] | mass density, Crystal [kg/m3]
[1] | – | – | 142.2 | 412.5 | 1130
[2] | 4.52 | 0.669 | – | – | –

[1]
Conditions | Normal melting temperature [°C] | vapor or sublimation pressure
342.3 K, Crystal 2 | – | 7e-05 kPa
343.5 K, Crystal 2 | – | 8e-05 kPa
346.4 K, Crystal 2 | – | 0.00011 kPa
348.5 K, Crystal 2 | – | 0.00014 kPa
349.2 K, Crystal 2 | – | 0.00015 kPa
353.4 K, Crystal 2 | – | 0.00026 kPa
353.6 K, Crystal 2 | – | 0.00025 kPa
356.9 K, Crystal 2 | – | 0.00038 kPa
359.2 K, Crystal 2 | – | 0.00046 kPa
360.4 K, Crystal 2 | – | 0.00055 kPa
361.6 K, Crystal 2 | – | 0.00066 kPa
363.4 K, Crystal 2 | – | 0.00078 kPa
363.5 K, Crystal 2 | – | 0.00078 kPa
365.4 K, Crystal 2 | – | 0.00096 kPa
365.9 K, Crystal 2 | – | 0.00102 kPa
367.8 K, Crystal 2 | – | 0.00122 kPa
368.2 K, Crystal 2 | – | 0.00119 kPa
368.7 K, Crystal 2 | – | 0.00134 kPa
368.9 K, Crystal 2 | – | 0.0014 kPa
370.7 K, Crystal 2 | – | 0.00162 kPa
373.1 K, Crystal 2 | – | 0.00199 kPa
373.3 K, Crystal 2 | – | 0.00216 kPa
378.6 K, Crystal 2 | – | 0.00342 kPa
379.3 K, Crystal 2 | – | 0.00369 kPa
381 K, Crystal 2 | – | 0.00422 kPa
388.5 K, Crystal 2 | – | 0.0089 kPa
390.5 K, Crystal 2 | – | 0.01034 kPa
393.6 K, Crystal 2 | – | 0.01381 kPa and 0.01388 kPa
393.7 K, Crystal 2 | – | 0.0142 kPa
393.8 K, Crystal 2 | – | 0.01384 kPa
395.2 K, Crystal 2 | – | 0.01617 kPa
396.9 K, Crystal 2 | – | 0.01961 kPa
397.4 K, Crystal 2 | – | 0.02032 kPa
398.6 K, Crystal 2 | – | 0.02126 kPa
399 K, Crystal 2 | – | 0.02336 kPa
399.9 K, Crystal 2 | – | 0.02413 kPa
402.6 K, Crystal 2 | – | 0.03218 kPa
403.2 K, Crystal 2 | – | 0.03283 kPa
Crystal, visual observation | 140.00 | –
